{"source": "patent US12616203B2", "about": "“Use of 3-isoxazolidinones compounds as selective herbicides” (FMC Corporation, priority 2014, dated 2026)", "key": {"Black nightshade": {"system": "Black nightshade", "assay": "Ex15 PRE 2,4-DC + S-metolachlor, % control 28 DAT, Colby", "type": "in vivo, Solanum nigrum", "excerpt": "(§1) The weeds tested in this study were redroot pigweed (Amaranthus retroflexus, AMARE), Jimsonweed (Datura stramonium, DATST), black nightshade (Solanum nigrum, SOLNI), large crabgrass (Digitaria sanguinalis, DIGSA), Pennsylvania smartweed (Polygonum pensylvanicum, POLPY), horseweed (Conyza canadensis, ERICA), wild buckwheat (Polygonum convolvulus, POLCO). The crop tested was Corn (var. Viking).\n(§2) To determine PRE efficacy and corn injury, five rates of each 2,4 DC (36.7% CS) and S-metolachlor (Dual II Magnum®, 82.4%) were applied either alone or as tank-mix. 2,4 DC was applied at 0, 125, 170, 210, or 250 g ai/ha and S-metolachlor was applied at 0, 267, 534, 801, or 1070 g ai/ha. Additional treatments included application of premix of pyroxasulfone plus fluthiacet-methyl (Anthem™ 23.3%) at 169.9 g ai/ha and tank-mix of mesotrione (Callisto®, 40%) at 123 g plus S-metolachlor at 1252 g. Treatments were applied just after the planting of large crabgrass, Jimsonweed, black nightshade, redroot pigweed, Pennsylvania smartweed, horseweed, wild buckwheat, and corn.\n(§3) Flats were watered and fertilized routinely after treatment application. Each treatment was replicated three times. […] Corn injury was rated for bleaching and stunting."}, "Annual bluegrass": {"system": "Annual bluegrass", "assay": "Ex34 PRE 2,4-DC + napropamide, % control, Colby", "type": "in vivo, Poa annua", "conditions": "28 DAT", "excerpt": "Thereafter flats were watered and fertilized routinely."}, "Italian ryegrass": {"system": "Italian ryegrass", "assay": "Ex36 POST 2,4-DC + metsulfuron-methyl, % control 28 DAT, Colby", "type": "in vivo, Lolium perenne L. ssp. multiflorum", "excerpt": "Crops screened were wheat and barley."}, "Barley": {"system": "Barley", "assay": "Ex40 POST 2,4-DC + metsulfuron-methyl, crop injury 7 DAT", "type": "in vivo", "experimental": "(§4) Treatments were applied to barley and wheat crops.\n(§5) Non-ionic surfactant (NIS) was added to all treatments at 0.5% v/v. All plant species were direct seeded into 3″ plastic pots using metro-mix as growth media. At treatment common lambsquarters was 1.75″, common chickweed was 2″, wild mustard was 2.25″, wild oat was 5.5″, wild buckwheat was 2-5″, Italian ryegrass was 2-3″, wheat was 5.5″ and barley was 4.5″ in height. Plants were watered well before application and not watered 24 h after application. Plants were watered and fertilized routinely after treatment application. Each treatment was replicated four times. Treated flats were placed in randomized block design in the greenhouse."}, "wheat": {"system": "wheat", "assay": "Ex40 POST 2,4-DC + metsulfuron-methyl, crop injury 7 DAT", "type": "in vivo", "experimental": "as §4, §5"}, "weeds [1]": {"system": "weeds", "assay": "Ex10 PRE greenhouse", "type": "in vivo", "conditions": "28 DAT, weed and rate in the words"}, "[2]": {"system": "weeds; Corn (var. Viking)", "assay": "Ex15 PRE greenhouse", "type": "in vivo", "conditions": "rate in the words", "excerpt": "as §1, §2, §3"}, "[3]": {"system": "weeds; Wheat, barley, and oil seed rape (OSR)", "assay": "Ex19 PRE greenhouse", "type": "in vivo", "conditions": "rate in the words", "excerpt": "In this study, the crops tested included Wheat, barley, and oil seed rape (OSR).\nTo determine weed efficacy and wheat, barley or OSR selectivity, 2,4 DC (CS 36.7%) and Diflufenican (CS 19.5%) were applied preemergence either alone or as tank-mix partners at the following rates. 2,4 DC was applied at 125, 170, 210 and 250 g ai/ha while Diflufenican was applied at 50, 75, and 100 g ai/ha. Pyroxasulfone (KIH-485, 85%) at 74.3 g ai/ha, pendimethalin (Prowl 3.3EC, 37.4%) at 1200 g ai/ha, or a premix of chlorsulfuron plus metsulfuron-methyl (Report Extra, 75%) at 15.8 g ai/ha were applied as commercial standards.\nHerbicides included as standards for comparison were pyroxasulfone, pendimethalin, and a pre mix of chlorsulfuron plus metsulfuron methyl, all applied at labeled rates as indicated above. Treatments were replicated 3 times. […] Thereafter flats were watered and fertilized routinely."}, "weeds [4]": {"system": "weeds", "assay": "Ex21 PRE greenhouse", "type": "in vivo", "conditions": "28 DAT, weed and rate in the words", "excerpt": "2,4 DC (36.7% CS) was applied PRE at 0, 125, 170, 210, or 250 g ai/ha alone or as a tank-mix with S-metolachlor (Dual II Magnum®, 82.4%) at 0, 267, 534, 801, or 1070 g ai/ha. Pyroxasulfone plus fluthiacet-methyl (Anthem™, 23.3%) applied at 169.9 g ai/ha, and the tank-mix of mesotrione (Callisto®, 40%) at 123 g plus S-metolachlor (Dual II Magnum®, 82.4%) at 1252 g were included as standards for comparison. […] Thereafter flats were watered and fertilized routinely. Each treatment was replicated three times."}, "weeds [5]": {"system": "weeds", "assay": "Ex22 PRE greenhouse", "type": "in vivo", "conditions": "28 DAT, weed and rate in the words", "excerpt": "2,4 DC (36.7% CS) was applied PRE at 0, 125, 170, 210, or 250 g ai/ha alone or as a tank-mix with S-metolachlor (Dual II Magnum®, 82.4%) at 0, 267, 534, 801, or 1070 g ai/ha. Pyroxasulfone plus fluthiacet-methyl (Anthem™, 23.3%) applied at 169.9 g ai/ha, and the tank-mix of mesotrione (Callisto®, 40%) at 123 g plus S-metolachlor (Dual II Magnum®, 82.4%) at 1252 g were included as a standards for comparison.\nThereafter flats were watered and fertilized routinely. Each treatment was replicated three times."}, "canola and wheat": {"system": "canola and wheat", "assay": "Ex43 PRE crop safety", "type": "in vivo", "conditions": "crop and rate in the words"}}, "note": "“Also recorded” adds a separate entry of the source."}
{"smiles": "CC1(C)CON(Cc2ccc(Cl)cc2Cl)C1=O", "note": "[2,4-DC, 2-(2,4-dichlorophenyl)methyl-4,4-dimethyl-3-isoxazolidinone]", "values": [{"measurement": "X", "setting": "Black nightshade; 2,4-DC alone 125 g ai/ha", "result": 32, "unit": "%"}, {"measurement": "X", "setting": "Black nightshade; 2,4-DC alone 170 g ai/ha", "result": 33, "unit": "%"}, {"measurement": "X", "setting": "Black nightshade; 2,4-DC alone 210 g ai/ha", "result": 47, "unit": "%"}, {"measurement": "X", "setting": "Black nightshade; 2,4-DC alone 250 g ai/ha", "result": 50, "unit": "%"}, {"measurement": "X", "setting": "Annual bluegrass; 2,4-DC alone 31 g ai/ha", "result": 0, "unit": "%"}, {"measurement": "X", "setting": "Annual bluegrass; 2,4-DC alone 63 g ai/ha", "result": 2, "unit": "%"}, {"measurement": "X", "setting": "Annual bluegrass; 2,4-DC alone 125 g ai/ha", "result": 12, "unit": "%"}, {"measurement": "X", "setting": "Annual bluegrass; 2,4-DC alone 250 g ai/ha", "result": 40, "unit": "%"}, {"measurement": "X", "setting": "Annual bluegrass; 2,4-DC alone 375 g ai/ha", "result": 63, "unit": "%"}, {"measurement": "X", "setting": "Italian ryegrass; 2,4-DC alone 50 g ai/ha", "result": 22, "unit": "%"}, {"measurement": "X", "setting": "Italian ryegrass; 2,4-DC alone 100 g ai/ha", "result": 18, "unit": "%"}, {"measurement": "X", "setting": "Italian ryegrass; 2,4-DC alone 200 g ai/ha", "result": 29, "unit": "%"}, {"measurement": "X (% crop injury, 2,4-DC alone)", "setting": "Barley; POST, 2,4-DC 125 g ai/ha", "result": 4, "unit": "%"}, {"measurement": "X (% crop injury, 2,4-DC alone)", "setting": "Barley; POST, 2,4-DC 170 g ai/ha", "result": 6, "unit": "%"}, {"measurement": "X (% crop injury, 2,4-DC alone)", "setting": "Barley; POST, 2,4-DC 210 g ai/ha", "result": 8, "unit": "%"}, {"measurement": "X (% crop injury, 2,4-DC alone)", "setting": "Barley; POST, 2,4-DC 250 g ai/ha", "result": 14, "unit": "%"}, {"measurement": "X (% crop injury, 2,4-DC alone)", "setting": "wheat; POST, 2,4-DC 125 g ai/ha", "result": 5, "unit": "%"}, {"measurement": "X (% crop injury, 2,4-DC alone)", "setting": "wheat; POST, 2,4-DC 170 g ai/ha", "result": 14, "unit": "%"}, {"measurement": "X (% crop injury, 2,4-DC alone)", "setting": "wheat; POST, 2,4-DC 210 g ai/ha", "result": 17, "unit": "%"}, {"measurement": "X (% crop injury, 2,4-DC alone)", "setting": "wheat; POST, 2,4-DC 250 g ai/ha", "result": 31, "unit": "%"}, {"measurement": "weed control in words", "setting": "weeds [1]", "result": "alone at 250 g ai/ha controlled common lambsquarters"}, {"measurement": "weed control / crop safety in words", "setting": "[2]", "result": "alone controlled large crabgrass at 170 g ai/ha or 250 g and it was safe on corn at all rate"}, {"measurement": "weed control / crop safety in words", "setting": "[3]", "result": "applied at 125 g ai/ha provided suppression (70-84% injury) to corn poppy, higher rates controlled (≥85% injury) corn poppy; also recorded: Wheat, barley, and oilseed rape (OSR) were safe (≤10% injury) with all stand alone treatments"}, {"measurement": "weed control in words", "setting": "weeds [4]", "result": "applied alone controlled (≥85% injury) common chickweed at all rates, bamyardgrass at ≥210 g ai/ha, and green foxtail at 250 g"}, {"measurement": "weed control in words", "setting": "weeds [5]", "result": "applied alone controlled (≥85% injury) Johnsongrass at 210 g ai/ha, common lambsquarters at 250 g and goosegrass at all rates"}, {"measurement": "crop safety in words", "setting": "canola and wheat", "result": "alone was safe (≤10% injury) on canola at ≤200 g ai/ha and safe on wheat at ≤100 g"}]}
